Assay results taken from PMC4205289, “Triptolide inhibits human immunodeficiency virus type 1 replication by promoting proteasomal degradation of Tat protein” (Retrovirology, 2014).

Key:
FLAG-Tat = tested on: T1, FLAG-Tat; test: Proteasome inhibition rescue of Tat expression, Western blot, HeLa cells; format: cell-based, HIV-1 NL4-3
T1 construct: expressed in transfected cells; host or cells: HeLa
Description: Figure 6 Triptolide reduces Tat protein stability by enhancing proteasomal degradation of Tat. (A) The effect of triptolide on Tat mRNA levels. HeLa cells were transfected with pEF1-Tat in the presence of increasing concentrations of triptolide. Cells were harvested 48 h post-transfection. The steady-state mRNA levels of Tat and GAPDH were examined using semi-quantitative reverse transcription PCR analysis. RT, reverse transcriptase. (B) The effect of triptolide on Tat protein degradation. HeLa cells were transfected with pEF1-FLAG-Tat in the presence of 5 nM triptolide or vehicle (DMSO). At 28 h post-transfection, cells were treated with 20 μg/mL of CHX to arrest protein synthesis. At 0, 1, 2, 3 h post-treatment, cells were harvested to determine protein expression levels using Western blot analysis. (C) The band intensities of FLAG-Tat in panel B were measured, and their natural log values were plotted as a function of time. Results were presented as the mean plus the standard deviations (n = 3). (D) Proteasome inhibition restores Tat protein expression. HeLa cells were transfected with pEF1-FLAG-Tat in the presence or absence of 5 nM triptolide. At 48 h post-transfection, cells were treated with 20 μM of MG132, and cultured for an additional 3 h before harvest. Protein expression levels were determined by Western blot analysis. TEXT PRINTED IN THE PICTURE: (C) DMSO: Half-lives: 2.0 h | (C) Triptolide: Half-lives: 0.4 h
Cells were washed with phosphate buffered saline (PBS) and lysed with radio immunoprecipitation assay lysis buffer supplemented with complete mini protease inhibitor cocktail (Roche) at 4°C for 1 h. Proteins from cell lysates were separated by SDS-PAGE and transferred to polyvinylidene difluoride membranes. After overnight incubation with primary antibodies at 4°C, each blot was probed with horseradish peroxidase-conjugated secondary antibody. Immunoreactive signals were detected with an enhanced chemiluminescence substrate (Thermo Scientific) using an AlphaEaseH FC Imaging System (Alpha Innotech Corporation).

HIV-1 NL4-3 = test: Time-of-addition experiment in TZM-bl cells; format: cell-based
Description: TZM-bl cells seeded in 96-well plates (2 × 10^4 /well) were infected with HIV-1 NL4-3 (MOI = 1). The virus inoculum was removed after 1 h of infection. Test compounds were added at different time points after infection (0 h, 2 h, 4 h, 6 h, 8 h, and 10 h). Dextran sulfate was added at 10 μg/mL, zidovudine at 1 μM and triptolide at 5 nM. At 48 h post-infection, the virus replication level was determined by analyzing luciferase activity in the cells as described above.

HIV-1 proviral DNA = test: Nested PCR of integrated proviral DNA in infected Jurkat cells; format: cell-based; settings: HIV-1 NL4-3 MOI 0.5, 12 h post-infection, 118-D-24 50 μM, flavopiridol 20 nM, triptolide 5 nM
Description: (§1) The effects of the test compounds on HIV-1 proviral DNA and mRNA synthesis were analyzed by PCR. Jurkat cells were grown in 24-well plates and infected with the HIV-1 NL4-3 strain at an MOI of 0.5, and then test compounds were added at the desired concentrations. After incubation for 12 h, genomic DNA and mRNA from the infected cells were isolated using a Genomic DNA Mini Preparation Kit (Beyotime, China) and TRIzol reagent (Invitrogen Life Technologies), respectively. Nested PCR was used for the amplification of integrated proviral DNA, as previously described. To determine viral mRNA expression levels, 1 μg of RNA was treated with RQ1 RNase-Free DNase (Promega) and reverse transcribed using M-MLV Reverse Transcriptase (Promega) and random primers (Promega). An aliquot of cDNA was used as template for amplification of the HIV-1 Gag region as described elsewhere. […]
(§2) All of the PCR products were visualized on a UV transilluminator in 2% agarose gels stained with ethidium bromide. In preliminary experiments, the exponential range of the PCR amplification curve was determined for all of the PCR products by varying the amount of input DNA and the number of PCR cycles. Based on these experiments, appropriate conditions were chosen to perform semi-quantitative PCRs.

HIV-1 mRNA = test: Reverse-transcription PCR of viral mRNA (Gag region) in infected Jurkat cells; format: cell-based; settings: HIV-1 NL4-3 MOI 0.5, 12 h post-infection, 118-D-24 50 μM, flavopiridol 20 nM, triptolide 5 nM
Description: as §1, §2

[1] = tested on: HIV-1 molecular clone pNL4-3.Luc.R-E-; test: Transient gene expression assay, pNL4-3.Luc.R-E- transfected into Jurkat cells; format: cell-based; settings: 24 h, 118-D-24 50 μM, flavopiridol 20 nM, triptolide 0.2 ~ 5 nM
Description: Figure 3 Triptolide inhibits HIV-1 transcription. (A) Time-of-addition analysis. TZM-bl cells were infected with HIV-1 (MOI = 0.5, strain NL4-3), and the virus inoculum was removed after 1 h of absorption. Test compounds (dextran sulfate at 10 μg/mL, zidovudine at 1 μM and triptolide at 5 nM) were added at the indicated time points after infection. Reporter signal was monitored at 48 h post-infection as a measure of viral replication. (B) The effect of triptolide on HIV-1 proviral DNA formation. Jurkat cells were infected with HIV-1 (MOI = 0.5, strain NL4-3) in the presence of the test compounds (INI 118-D-24, 50 μM; flavopiridol, 20 nM; and triptolide, 5 nM). Proviral DNA synthesis was determined by nested PCR analysis at 12 h post-infection. (C) The effect of triptolide on HIV-1 mRNA synthesis. Jurkat cells were infected with HIV-1(MOI = 0.5, strain NL4-3) in the presence of the test compounds (INI 118-D-24, 50 μM; flavopiridol, 20 nM; triptolide, 5 nM). Viral mRNA (the Gag region) content was determined by reverse-transcription PCR analysis 12 h post-infection. (D) Inhibition of luciferase expression encoded in pNL4-3.Luc.R-E- by tiptolide. […]
To further confirm that triptolide interferes with HIV-1 transcription, a transient gene expression assay was performed. […] At 24 h after transfection, viral gene transcription (indicated by luciferase activity) was determined. […]

## MG132
FLAG-Tat; 20 μM MG132 for 3 h, without triptolide, relative to DMSO control
  increase of Tat level: 30%
FLAG-Tat; 20 μM MG132 for 3 h in the presence of 5 nM triptolide
  restoration of Tat protein, increase as % of Tat level in DMSO control: 30%

## Dextran sulfate sodium salt
HIV-1 NL4-3; dextran sulfate at 10 μg/mL, luciferase at 48 h
  time-of-addition inhibition profile: dramatic early loss in activity

## CN1CC[C@H](c2c(O)cc(O)c3c(=O)cc(-c4ccccc4Cl)oc23)[C@H](O)C1 [flavopiridol, reference compound]
HIV-1 proviral DNA
  effect on proviral DNA formation (integration): no effect on virus integration
HIV-1 mRNA
  effect on viral mRNA synthesis: repress viral mRNA synthesis
[1]
  effect on luciferase expression from transfected pNL4-3.Luc.R-E-: significantly reduced luciferase expression

## Cc1cn([C@H]2C[C@H](N=[N+]=[N-])[C@@H](CO)O2)c(=O)[nH]c1=O [zidovudine]
HIV-1 NL4-3; Human immunodeficiency virus 1, NL43, TZM-bl, read-out: inhibitory activity retained
  inhibition at 1 µM: 71%
